# Assay results published in patent publication US20120309811A1, “P-GLYCOPROTEIN-SPECIFIC NON-COMPETITIVE PEPTIDE AND PEPTIDOMIMETIC MODULATORS” (UNIVERSITE CLAUDE BERNARD - LYON 1, priority 2009, published 2012).
# Legend:
# Assay type in all cases: cell-based
# P-gp [1] = biological target: T1, P-gp (Homo sapiens, UniProt P08183); test: Flow cytometry, inhibition of mitoxantrone efflux in NIH3T3 cells expressing P-gp
# T1 construct: expressed in transfected cells; host or cells: NIH3T3 (ATCC CRL-1658), stably transfected with retroviral vector pHaMDR1/A
# Excerpt: (§1) The HEK-293 human fibroblast line (ATCC cell collection CRL-1573) is transfected with either BCRP (Robey R. W. et al. 2003, Br. J. Cancer 89(10) 1971-1978, [32]) or ABCC1, cloned into the pcDNA3.1 expression vector (Invitrogen), or with the empty pcDNA3.1 vector. The NIH3T3 cell line (ATCC CRL-1658) was stably transfected with pHaMDR1/A (Cardarelli et al. 1995 Cancer Res 55 1086-1091, [33]), which is a retroviral vector that expresses the wild-type MDR1 protein. The BHK-21 cell line (ATCC CCL-10) was transfected with MRP1 cloned into the pcDNA3.1 expression vector, or the empty pcDNA3.1 vector. The cells are maintained in culture in DMEM glutamax II (Invitrogen) supplemented with 10% of fetal bovine serum and 1% of penicillin/streptomycin. The data are processed with Sigmaplot V11 (http://www.systat.com/), and the equation for mathematical adjustment of the experimental data for calculating the IC50 values: f=a×(1−exp(−b×x)) (a=slope, b=intercept on the y-axis).
# (§2) The cells expressing P-gp, BCRP and MRP, and their corresponding controls, are placed in the presence of 10 and 2 μM of mitoxantrone for the first two transporters and of 1 μM of daunorubicin for the 3rd. Substrate accumulation is carried out for 30 minutes at 37° C. in the presence or absence of varied concentrations of the molecules tested, at a final DMSO (dimethyl sulfoxide) concentration of 0.5%. After washing with PBS (phosphate buffered saline), the cells are incubated in medium containing the same concentrations of molecules tested as previously, for 1 h at 37° C. The intracellular fluorescence of mitoxantrone and daunorubicin anticancer agent is measured with the FACscan flow cytometer (Becton Dickinson, Mountain, View, Calif.). The drugs are excited at 488 nm. The emission of mitoxantrone is measured at 650 nm, whereas the emission of daunorubicin is measured at 530 nm. The effectiveness of the molecules tested is expressed by equation 1: % effectiveness=100×(FA−FBG)/(FC−FBG), where FA corresponds to the intracellular level of substrate measured in the cells overexpressing ABCG2 (corresponding to the lowest level of fluorescence in the absence of inhibitor), FC corresponds to the fluorescence in the control cells transfected with the empty vector (and therefore to the maximum accumulation of substrate in the cells) and FBG corresponds to the fluorescence measured in the absence of substrate and in the presence of inhibitor.
# (§3) The inhibitory effect of the compounds is quantified by measuring, by flow cytometry, the efflux of an anticancer drug transported by the pump under consideration, i.e. mitoxantrone for P-gp and BCRP and daunorubicin for MRP1. It is compared with that of the reference product, reversin 121. The products are tested at 10 μM, then at 2 μM for those which block at least 80% of the efflux of mitoxantrone, and for some, a more complete concentration range is tested so as to establish the concentration value producing 50% inhibition, IC50, as indicated in FIG. 3.
# [2] = tested on: NIH3T3 cells expressing or not expressing P-gp; test: Cytotoxicity test (MTT), cell survival after 72 h
# Description: The cells are seeded in a proportion of 10 000 per well in 96-well plates and incubated for 24 hours at 37° C. under 5% CO2. Varied concentrations of compounds Nos 2, 3, 4, 5 and 6, up to 20 times the IC50, are then added. The cytotoxicity is evaluated colorinnetrically with 3-(4,5-dimethylthiazol-2-yl)-2,5-diphenyltetrazolium bromide (MTT).
# Increasing concentrations of compound No. 4 or No. 6 are applied to NIH3T3 cells expressing or not expressing P-gp. The cell survival is measured after 72 h and is expressed as a percentage. At 10 times the half-maximum-effect concentration, these two compounds are not toxic. Above this, the toxicity of compound No. 4 remains negligible, while that of compound No. 6 remains limited.
# BCRP = biological target: T2, BCRP (Homo sapiens, UniProt Q9UNQ0); test: Flow cytometry, inhibition of mitoxantrone efflux in HEK-293 cells transfected with BCRP; details: 10 μM compound
# T2 construct: expressed in transfected cells; host or cells: HEK-293 (ATCC CRL-1573), pcDNA3.1 expression vector (Invitrogen)
# T2 sequence (Q9UNQ0 1-655): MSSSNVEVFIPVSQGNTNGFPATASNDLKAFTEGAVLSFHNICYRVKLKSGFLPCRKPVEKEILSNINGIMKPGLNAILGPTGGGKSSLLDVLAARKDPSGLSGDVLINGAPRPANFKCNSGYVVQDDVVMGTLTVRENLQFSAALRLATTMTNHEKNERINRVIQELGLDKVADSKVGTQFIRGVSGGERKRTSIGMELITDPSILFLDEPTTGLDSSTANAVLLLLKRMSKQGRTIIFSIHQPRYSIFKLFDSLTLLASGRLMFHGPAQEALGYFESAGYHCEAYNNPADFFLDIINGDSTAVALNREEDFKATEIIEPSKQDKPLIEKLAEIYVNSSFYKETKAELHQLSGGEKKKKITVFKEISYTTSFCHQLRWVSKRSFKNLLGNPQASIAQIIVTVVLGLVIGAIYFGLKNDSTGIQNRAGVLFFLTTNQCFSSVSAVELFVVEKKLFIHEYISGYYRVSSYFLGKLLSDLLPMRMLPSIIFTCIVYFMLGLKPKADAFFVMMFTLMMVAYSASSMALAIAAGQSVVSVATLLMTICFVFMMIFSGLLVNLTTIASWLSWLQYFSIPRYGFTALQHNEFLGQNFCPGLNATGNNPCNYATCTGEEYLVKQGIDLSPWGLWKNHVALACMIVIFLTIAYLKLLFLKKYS
# Excerpt: as §1, §2, §3
# MRP1 = biological target: T3, MRP1 (Homo sapiens, UniProt P33527); test: Flow cytometry, inhibition of daunorubicin efflux in cells transfected with MRP1; details: human, probe daunorubicin, 10 μM compound, read-out: % pump inhibition at 10 μM of compound, MRP1
# T3 construct: expressed in transfected cells; host or cells: BHK-21 (ATCC CCL-10) with MRP1 in pcDNA3.1; HEK-293 transfected with ABCC1 in pcDNA3.1 is also described
# Excerpt: as §1, §2
# The inhibitory effect of the compounds is quantified by measuring, by flow cytometry, the efflux of an anticancer drug transported by the pump under consideration, i.e. mitoxantrone for P-gp and BCRP and daunorubicin for MRP1. It is compared with that of the reference product, reversin 121. […]
# P-gp [3] = biological target: T1, P-gp; test: Kinetics of inhibition of daunorubicin efflux produced by P-gp (mode of inhibition); details: Lineweaver & Burke double reciprocal representation
# Description: FIGS. 6A and 6B show the kinetics of inhibition of daunorubicin efflux produced by P-gp, with compound No. 6. The intracellular daunorubicin fluorescence is measured in the presence of increasing concentrations of No. 6, respectively 0 (circles), 0.12 μM (triangles), 0.22 μM (squares), 0.44 μM (diamonds) and 10 μM (upward-pointing triangles), corresponding to 0, 25, 50, 75 and 100% efflux inhibition effectiveness. FIG. 6A: direct representation, FIG. 6B, Lineweaver & Burke double reciprocal representation.
# The intracellular concentration of fluorescent daunorubicin is measured at increasing daunorubicin concentrations, in the presence or absence of fixed concentrations of 0, 0.12 μM, 0.22 μm, 0.44 μM and 10 μM of compound No. 6 corresponding to 0%, 25%, 50%, 75% and 100% efflux inhibition effectiveness according to FIG. 3.
# T1 sequence (P08183 whole entry): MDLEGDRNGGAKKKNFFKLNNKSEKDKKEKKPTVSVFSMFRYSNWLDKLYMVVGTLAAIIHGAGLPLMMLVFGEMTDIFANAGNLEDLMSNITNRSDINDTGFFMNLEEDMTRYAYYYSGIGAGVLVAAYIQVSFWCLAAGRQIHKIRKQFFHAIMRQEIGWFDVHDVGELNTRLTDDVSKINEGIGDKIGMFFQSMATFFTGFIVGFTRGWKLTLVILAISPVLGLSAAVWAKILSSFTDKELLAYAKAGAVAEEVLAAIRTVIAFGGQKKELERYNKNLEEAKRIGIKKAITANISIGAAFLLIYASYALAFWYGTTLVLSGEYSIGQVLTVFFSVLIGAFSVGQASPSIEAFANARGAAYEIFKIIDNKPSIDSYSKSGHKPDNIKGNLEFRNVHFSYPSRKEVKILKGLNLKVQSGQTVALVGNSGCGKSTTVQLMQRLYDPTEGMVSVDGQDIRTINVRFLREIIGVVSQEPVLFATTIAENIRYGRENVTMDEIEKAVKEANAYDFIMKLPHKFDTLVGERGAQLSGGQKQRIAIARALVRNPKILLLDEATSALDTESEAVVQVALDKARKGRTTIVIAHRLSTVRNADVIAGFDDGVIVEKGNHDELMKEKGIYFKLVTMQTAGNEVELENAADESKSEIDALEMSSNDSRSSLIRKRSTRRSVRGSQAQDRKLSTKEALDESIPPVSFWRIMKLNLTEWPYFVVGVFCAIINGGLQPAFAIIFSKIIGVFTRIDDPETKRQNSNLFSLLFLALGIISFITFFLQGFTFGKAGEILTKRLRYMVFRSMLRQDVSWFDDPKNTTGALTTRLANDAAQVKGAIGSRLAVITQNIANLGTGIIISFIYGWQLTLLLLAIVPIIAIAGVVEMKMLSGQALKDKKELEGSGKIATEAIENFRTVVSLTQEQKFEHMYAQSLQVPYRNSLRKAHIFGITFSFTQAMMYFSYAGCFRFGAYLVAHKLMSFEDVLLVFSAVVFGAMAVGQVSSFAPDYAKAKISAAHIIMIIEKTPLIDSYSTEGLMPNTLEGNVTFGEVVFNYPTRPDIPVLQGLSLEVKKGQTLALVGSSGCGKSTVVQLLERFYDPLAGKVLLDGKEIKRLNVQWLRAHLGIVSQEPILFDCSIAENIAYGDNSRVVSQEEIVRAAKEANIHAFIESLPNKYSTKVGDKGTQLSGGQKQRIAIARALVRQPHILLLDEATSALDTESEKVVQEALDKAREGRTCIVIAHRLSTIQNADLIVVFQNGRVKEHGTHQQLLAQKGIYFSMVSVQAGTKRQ
# T3 sequence (P33527 whole entry): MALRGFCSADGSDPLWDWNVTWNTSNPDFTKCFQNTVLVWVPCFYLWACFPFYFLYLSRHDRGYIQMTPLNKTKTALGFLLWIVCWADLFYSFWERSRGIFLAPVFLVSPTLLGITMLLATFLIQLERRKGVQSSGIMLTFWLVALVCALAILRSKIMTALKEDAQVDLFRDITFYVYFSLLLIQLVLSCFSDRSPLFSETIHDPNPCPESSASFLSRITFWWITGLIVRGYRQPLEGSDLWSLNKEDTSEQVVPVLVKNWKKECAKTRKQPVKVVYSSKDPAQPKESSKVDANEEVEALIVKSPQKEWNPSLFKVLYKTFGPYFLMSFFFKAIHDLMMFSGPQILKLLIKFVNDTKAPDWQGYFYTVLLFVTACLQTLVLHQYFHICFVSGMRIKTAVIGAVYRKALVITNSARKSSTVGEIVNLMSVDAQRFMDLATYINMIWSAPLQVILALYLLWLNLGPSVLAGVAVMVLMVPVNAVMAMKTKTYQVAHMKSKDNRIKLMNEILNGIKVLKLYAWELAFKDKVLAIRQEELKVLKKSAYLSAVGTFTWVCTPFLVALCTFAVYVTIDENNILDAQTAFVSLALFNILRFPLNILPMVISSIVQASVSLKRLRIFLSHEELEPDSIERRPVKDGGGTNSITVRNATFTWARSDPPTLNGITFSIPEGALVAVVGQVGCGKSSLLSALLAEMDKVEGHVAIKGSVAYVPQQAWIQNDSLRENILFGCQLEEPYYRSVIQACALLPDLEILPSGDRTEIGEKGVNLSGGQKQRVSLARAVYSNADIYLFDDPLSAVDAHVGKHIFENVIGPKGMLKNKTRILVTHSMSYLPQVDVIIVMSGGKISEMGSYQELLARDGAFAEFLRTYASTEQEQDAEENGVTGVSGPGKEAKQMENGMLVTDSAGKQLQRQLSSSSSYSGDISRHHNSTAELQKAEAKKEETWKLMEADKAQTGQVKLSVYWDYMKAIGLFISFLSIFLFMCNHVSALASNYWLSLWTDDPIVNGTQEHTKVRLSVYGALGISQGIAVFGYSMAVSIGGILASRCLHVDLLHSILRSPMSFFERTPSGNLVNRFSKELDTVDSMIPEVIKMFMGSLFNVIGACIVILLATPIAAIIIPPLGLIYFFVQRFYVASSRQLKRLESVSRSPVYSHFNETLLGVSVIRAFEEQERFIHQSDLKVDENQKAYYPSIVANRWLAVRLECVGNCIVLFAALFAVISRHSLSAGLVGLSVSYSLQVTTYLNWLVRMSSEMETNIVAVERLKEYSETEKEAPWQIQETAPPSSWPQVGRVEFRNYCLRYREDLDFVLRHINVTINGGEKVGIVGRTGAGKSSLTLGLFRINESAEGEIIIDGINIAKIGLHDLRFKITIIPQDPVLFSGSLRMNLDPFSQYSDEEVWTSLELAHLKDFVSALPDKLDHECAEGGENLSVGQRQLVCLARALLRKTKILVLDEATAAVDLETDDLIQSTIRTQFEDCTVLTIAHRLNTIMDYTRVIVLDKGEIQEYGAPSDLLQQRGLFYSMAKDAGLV
structure (smiles),measurement,setting,value
"CC(C)(C)OC(=O)[C@H](CCCCNC(=O)OCc1ccccc1)NC[C@@H]1C[C@@H](OCc2ccccc2)CN1C(=O)OC(C)(C)C [No. 6, N^α-Boc-trans-L-4-Hyp(Bn)-ψ(CH2-NH)-L-Lys(Z)-OtBu]",IC50 for P-gp compared with that of reversin 121,P-gp [1],seven times better
same,"% pump inhibition at 10 μM of compound, P-gp","P-gp [1]; 10 μM compound, mitoxantrone efflux",106.9 ± 23.0%
same,"inhibition at 1 h, 0.12 µM","P-gp [1]; human, probe mitoxantrone, 0.12 μM compound, according to FIG. 3, read-out: efflux inhibition effectiveness",25%
same,"inhibition at 1 h, 0.44 µM","P-gp [1]; human, probe mitoxantrone, 0.44 μM compound, according to FIG. 3, read-out: efflux inhibition effectiveness",75%
same,"inhibition at 1 h, 10 µM","P-gp [1]; human, probe mitoxantrone, 10 μM compound, according to FIG. 3, read-out: efflux inhibition effectiveness",100%
same,"inhibition at 1 h, 0.22 μM","P-gp [1]; human, probe mitoxantrone, 0.22 μm compound, according to FIG. 3, read-out: efflux inhibition effectiveness",50%
same,IC50,"P-gp [1]; mitoxantrone efflux, mathematical adjustment of experimental points",220 ± 30 nM
same,cytotoxicity,[2]; above 10 times the half-maximum-effect concentration,limited
same,cytotoxicity,[2]; at 10 times the half-maximum-effect concentration,not toxic
same,"% pump inhibition at 10 μM of compound, BCRP",BCRP,42.3 ± 0.8%
same,"inhibition at 1 h, 10 µM",MRP1,< 10%
same,mechanism of inhibition,P-gp [3],noncompetitive
